These results are taken from patent publication US20240342947A1, “A WOOD PRESERVATIVE COMPOSITION COMPRISING 4,5-DICHLORO-2-OCTYLISOTHIAZOL-3(2H)-ONE, A METHOD TREATING A WOOD SUBSTRATE THEREWITH, AND A WOOD PRODUCT PRODUCED THEREFROM” (KOPPERS PERFORMANCE CHEMICALS, INC., priority 2021, published 2024).

The series in a line: #2 Diesel solvency for DCOI testing. The format is physicochemical. Here is the method: Solvency (i.e., ability to dissolve) of #2 diesel for DCOI was measured. Initially, different amounts of DCOI (98.5% purity) was dissolved in #2 diesel in respective vials to make a DCOI concentrate. Thereafter, the vials were stored at ambient temperature (i.e., 21 degrees Celsius+/−2 degrees) or 4 degrees Celsius for up to 7 days. During storage, the vials were monitored for phase separation, precipitation, and turbidity, which may indicate incompatibility between the organic solvent and the DCOI. Whenever a phase separation, precipitation or solution turbidity event happened, the vial was no longer monitored and the DCOI concentration in that solution was considered to be higher than the solvency of the organic solvent.
After two hours of storage at ambient temperature, it was observed that the solvency of #2 diesel for DCOI without any additional polar solvents was no greater than 15% by weight because the DCOI precipitated in the vials containing concentrations of DCOI of greater than 15% by weight. […] Therefore, the maximum solvency of #2 diesel is for DCOI was determined to be 15% by weight.

As for `CCCCCCCCn1sc(Cl)c(Cl)c1=O` [DCOI, 4,5-dichloro-2-octylisothiazol-3 (2H)-one], for the setting “after two hours of storage at ambient temperature, without any additional polar solvents”, the “solvency of #2 diesel for DCOI” value was at most 15 % by weight. Also, the “maximum solvency of #2 diesel for DCOI” value (ambient temperature, no solid DCOI precipitated after 7 days) is listed as 15 % by weight.
